# Source: US11992497B2 (priority 2021, dated 2024)
# Read-outs that look alike come from different tables or passages of the source.
# What was measured:
# [1] = system: p-cMyc(S62), cMyc, p-AKT(S473), AKT, p-ERK(T202/Y204), ERK; assay: Target engagement Western blot in HCT116 cells; type: cell-based; settings: 10-80 μM, 3 hours
# Protocol: For Western blot, the compounds were tested at 4 concentrations for 3 hours on 3 colon cancer cell lines. The compounds, concentrations, colon cancer cell line panel, and antibodies panel tested are the following: • CBG: 0 μM, 10 μM, 20 μM, 40 μM, and 80 μM. • Compound 1: 0 μM, 10 μM, 20 μM, 40 μM, and 80 μM. • Compound 2: 0 μM, 10 μM, 20 μM, 40 μM, and 80 μM. • Colon cancer cell line panel: SW620, HCT15, HCT116 • Antibodies panel: p-cMYC(S62), cMyc, p-AKT(S473), AKT, p-ERK(T202/Y204), ERK Methods
# Evaluation of target engagement was performed to determine the expression of specific marker protein expression and underlying signaling pathways with Western blot.
# Western blot. Whole cell extracts were prepared by incubating cell pellets in IP lysis buffer supplemented with protease and phosphatase inhibitors (Roche). Isolated protein was quantified by Pierce BCA Protein assay (ThermoFisher). Equal quantities of protein were separated by 4-15% SDS-PAGE electrophoresis gels and transferred onto nitrocellulose membranes. Membranes was blocked with 5% nonfat milk in Tris-buffered saline-Tween buffer. […]
# UGT = UGT reaction phenotyping, all the UGTs combined; type: in vitro ADME, Human
# Text: Experimental Summary: UGT Reaction Phenotyping (7 Isoforms).
# [2] = system: cryopreserved hepatocytes; assay: Hepatocyte stability and metabolite profiling; type: in vitro ADME, monkey; settings: monkey hepatocyte samples
# Protocol: (§1) The objective of this study was to investigate the stability of the test compound, CBG, in human, rat, dog, mouse, monkey and minipig cryopreserved hepatocytes. Follow-on metabolite profiling was performed.
# (§2) CBG was incubated up to 2 hr with cryopreserved hepatocytes. Cryopreserved hepatocytes in suspension were added to test compound in supplemented media following pre-incubation to initiate the reaction and the reactions were stopped by organic solvent at the appropriate time points. The termination plates were centrifuged and sample supernatants were analysed using Cyprotex generic LC MS/MS conditions to generate intrinsic clearance values for CBG. Two control compounds for each species were included in the assay and if the values for these compounds were not within the specified limits the results were rejected and the experiment repeated.
# (§3) Following the hepatocyte stability assay the samples were 59tilized for metabolite profiling using suitable high-resolution LC-MS/MS conditions. The 40 and 60 minute human samples, 20 and 120 minute rat samples, 10 and 20 minute dog and monkey samples, 20 and 60 minute mouse samples, and 40 and 120 minute minipig samples were compared against the 0 minute control sample to establish which and how many metabolites were formed. […] No further analysis was carried out with the mouse species.
# (§4) The areas and percentages reported for the parent and metabolites were calculated using the XIC data. Metabolite observed at greater than 1% of the total of drug related material are reported. […] For accuracy, a ppm error of less than 5 is desirable; when the response for a metabolite observed is low the ppm error maybe greater than 5. Where a metabolite has been referred to as a potential oxidation it can refer to a potential hydroxylation, epoxidation or oxide formation. Representative collision induced dissociation (CID) mass spectra were obtained for the metabolites found.
# [3] = Hepatocyte stability and metabolite profiling; type: in vitro ADME, monkey; settings: cryopreserved hepatocytes in suspension; Monkey cryopreserved hepatocytes
# Protocol: as §1, §2, §3, §4
# [4] = system: cryopreserved hepatocytes; assay: Hepatocyte stability and metabolite profiling; type: in vitro ADME, minipig; settings: minipig hepatocyte samples
# Protocol: as §1, §2, §3, §4
# [5] = Hepatocyte stability and metabolite profiling; type: in vitro ADME, minipig; settings: cryopreserved hepatocytes in suspension; Minipig cryopreserved hepatocytes
# Protocol: as §1, §2, §3, §4
# [6] = Quantification of CBG in rat brain tissue (LC-MS/MS); type: in vivo, Sprague-Dawley rat; settings: for concentration at 24 h: Sprague-Dawley, rat, brain, oral
# Protocol: The purpose of this study was to quantify cannabigerol (CBG) in rat plasma and brain.
# Seven- to nine-week-old male and female Sprague-Dawley received either a single dose or once daily dosing for 21 days of vehicle or CBG at three different dosage levels as shown in the Table below.
# Approximately 0.2-0.25 mL blood was collected during the first 24 hours after the single dose, and at multiple times points after the terminal dose for the animals receiving daily dosing for 21 days. Liver, kidney, and colon samples were collected and fixed in 10% NBF for 48 hours, then stored in 70% ethanol at room temperature. Brain samples were collected and flash frozen.
# Analytical curves were constructed using non-zero standards with CBG concentration ranging from 0.0025 to 2.500 μg/mL and 2.500-100.0 μg/mL in blank rat plasma samples and 1.0 to 2500 ng/mL in blank brain tissues. A blank sample was used to exclude contamination.
# Instrument Used: AB SCIEX QTRAP 4500/Shimadzu Prominence LC
# [7] = Hepatocyte stability and metabolite profiling; type: in vitro ADME; settings: cryopreserved hepatocytes in suspension; Mouse cryopreserved hepatocytes
# Protocol: as §1, §2
# Following the hepatocyte stability assay the samples were 59tilized for metabolite profiling using suitable high-resolution LC-MS/MS conditions. The 40 and 60 minute human samples, 20 and 120 minute rat samples, 10 and 20 minute dog and monkey samples, 20 and 60 minute mouse samples, and 40 and 120 minute minipig samples were compared against the 0 minute control sample to establish which and how many metabolites were formed. […]
# The areas and percentages reported for the parent and metabolites were calculated using the XIC data. […]
# [8] = Metabolic stability in human intestine microsomes (UDPGA, UGT activity only); type: in vitro ADME; settings: human, pooled intestinal microsomes, pH 7.4, 1 μM, 0.5 mg/mL microsomes + alamethicin, UDPGA
# Protocol: (§5) The objective of this study was to investigate the stability of the test compound, CBG, in the presence of intestinal microsomes that only have UGT activity and no CYP activity.
# (§6) Test compound (1 μM) was incubated with pooled intestinal microsomes at 6 time points over the course of a 60 min assay and the test compound is analyzed by LC-MS/MS.
# (§7) The final incubation volume is 500 μL. A minus cofactor control incubation was included for each compound tested where 0.1 M Tris, 5 mM MgCl2 buffer pH 7.4 is added instead of UDPGA (minus UDPGA). Two control compounds were included. All incubations were performed singularly for each test compound.
# (§8) Each compound was incubated for 0, 5, 10, 20, 40 and 60 min. The control (minus UDPGA) was incubated for 60 min only. The reactions were stopped by transferring incubate into acetonitrile at the appropriate time points, in a 1:3 ratio. The termination plates were centrifuged at 3,000 rpm for 20 min at 4° C. to precipitate the protein.
# (§9) Following protein precipitation, the sample supernatants were combined in cassettes of up to 4 compounds, internal standard was added and samples analysed using Cyprotex generic LC-MS/MS conditions.
# (§10) From a plot of ln peak area ratio (compound peak area/internal standard peak area) against time, the gradient of the line was determined. Subsequently, half-life and intrinsic clearance were calculated using the equations below: […]
# [9] = system: human intestine microsomes; assay: as above; type: in vitro ADME
# Protocol: as §5, §6, §7, §8, §9, §10
smiles,measurement,setting,value
"CCCCCc1cc(O)c(C/C=C(\C)CCC=C(C)C)c(OC)c1 [Compound 1, (E)-2-(3,7-dimethylocta-2,6-dien-1-yl)-3-methoxy-5-pentylphenol]",pAKT(S473) (Western blot),[1],down-regulated pAKT(S473) in HCT116 cells with a dose effect
same,Total UGT activity relative to that observed with CBG,UGT,23%
same,share of total UGT activity associated with UGT1A9 and UGT2B7,UGT,73%
"CCCCCc1cc(O)c(C/C=C(\C)CCC=C(C)C)c(O)c1 [CBG, cannabigerol]",number of metabolites observed,[2],four
same,half-life,[3],11.3 min
same,hepatocyte CLint,[3],122 µL/min/1e6 cells
same,number of metabolites observed,[4],four
same,half-life,[5],42.7 min
same,hepatocyte CLint,[5],32.5 µL/min/1e6 cells
same,CBG concentration in rat brain tissue (Day 21),"[6]; CBG 10 mg/kg oral gavage once daily, 24 hrs post Rx",BLQ (BLQ—Below Limit of Quantification (1.0 ng/g))
same,concentration at 24 h,"[6]; both sexes, 30 mg/kg, CBG 30 mg/kg oral gavage once daily, 24 hrs post Rx, read-out: CBG concentration in rat brain tissue (Day 21)",43.8 ng/g
same,concentration at 24 h,"[6]; female, 100 mg/kg, CBG 100 mg/kg once daily, 24 hrs post Rx, female rats, read-out: CBG concentration in rat brain tissue (Day 21), Average",299 ng/g
same,concentration at 24 h,"[6]; male, 100 mg/kg, CBG 100 mg/kg once daily, 24 hrs post Rx, male rats, read-out: CBG concentration in rat brain tissue (Day 21), Average",540 ng/g
same,CBG in brain (in words),"[6]; oral CBG, Day 21",not detected
same,half-life,[7],42.2 min
same,hepatocyte CLint,[7],32.8 µL/min/1e6 cells
same,half-life at 1 µM,[8],1.57 min
same,microsomal CLint at 1 µM,[8]; from 0 and 5 minute time points only,884 µL/min/mg
same,appearance of CBG-glucoronide (in words),[9]; CBG incubated with human intestine microsomes,appeared rapidly
same,Comments: detectability of test compound,[9]; by 10 minutes,Test compound not detectable
same,disappearance of parent compound (in words),[9]; incubated with human intestine microsomes,disappeared rapidly
